Measurements as given in ChEMBL document CHEMBL1140610, “Matrix metalloproteinases (MMPs): chemical-biological functions and (Q)SARs” (Bioorg Med Chem, 2007).

Tests used:
Interstitial collagenase = target: T1, Interstitial collagenase (Homo sapiens, UniProt P03956); details: read-out: log(1/IC50) (converted)
T1 sequence (P03956 whole entry): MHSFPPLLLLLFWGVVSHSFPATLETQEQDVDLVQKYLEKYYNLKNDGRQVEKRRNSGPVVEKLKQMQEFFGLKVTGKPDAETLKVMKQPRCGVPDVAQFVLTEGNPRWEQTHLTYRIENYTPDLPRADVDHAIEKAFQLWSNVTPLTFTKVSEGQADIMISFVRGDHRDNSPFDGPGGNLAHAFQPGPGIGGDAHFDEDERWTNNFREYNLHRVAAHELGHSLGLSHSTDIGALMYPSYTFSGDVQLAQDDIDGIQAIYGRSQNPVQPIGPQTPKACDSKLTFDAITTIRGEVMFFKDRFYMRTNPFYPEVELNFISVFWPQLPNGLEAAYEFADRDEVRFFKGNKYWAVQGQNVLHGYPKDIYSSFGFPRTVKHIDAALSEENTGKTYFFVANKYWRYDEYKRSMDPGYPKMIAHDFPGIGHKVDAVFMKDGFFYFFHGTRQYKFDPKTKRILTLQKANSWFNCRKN

[1] = target: Matrix metalloproteinase-14 (Homo sapiens, UniProt P50281)
Matrilysin = target: T2, Matrilysin (Homo sapiens, UniProt P09237); details: read-out: log(1/IC50) (converted)
T2 sequence (P09237 whole entry): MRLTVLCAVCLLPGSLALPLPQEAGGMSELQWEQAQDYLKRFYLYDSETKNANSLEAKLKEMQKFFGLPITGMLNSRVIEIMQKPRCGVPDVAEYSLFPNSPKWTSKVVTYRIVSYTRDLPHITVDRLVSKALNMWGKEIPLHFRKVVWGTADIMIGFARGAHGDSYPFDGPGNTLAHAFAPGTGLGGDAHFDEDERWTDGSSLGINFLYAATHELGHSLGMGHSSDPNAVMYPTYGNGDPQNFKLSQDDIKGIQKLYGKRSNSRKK

SMILES	IC50 (Interstitial collagenase) [nM]	other results
CC(N)P(=O)(O)CC(CSCc1ccccc1)C(=O)NC(Cc1c[nH]c2ccccc12)C(N)=O (stereo not drawn)	14.1	–
Cc1ncccc1COc1ccc(S(=O)(=O)N2CCC[C@@](C)(O)C2C(=O)NO)cc1 (stereo partly drawn)	1580	–
CCOCCC1(Oc2ccc(Oc3ccccc3F)cc2)C(=O)NC(=O)NC1=O	–	IC50 [1]: 15.8 nM
CN1CC(=O)N(C2C[C@H](C(=O)NO)N(S(=O)(=O)c3ccc(Oc4ccncc4)cc3)C2)C1=O (stereo partly drawn)	–	IC50 (Matrilysin): 7410 nM
CCOCCC1(Oc2ccc(Oc3ccc(C(N)=O)cc3)cc2)C(=O)NC(=O)NC1=O	–	IC50 [1]: 617 nM
CCCCOc1ccc(S(=O)(=O)N2CC(N3C(=O)CN(CCC)C3=O)C[C@@H]2C(=O)NO)cc1 (stereo partly drawn)	–	IC50 (Matrilysin): 1200 nM
CCCOc1ccc(S(=O)(=O)N2CC(N3C(=O)CN(C)C3=O)C[C@@H]2C(=O)NO)cc1 (stereo partly drawn)	–	IC50 (Matrilysin): 2570 nM
C[C@@]1(O)CCCN(S(=O)(=O)c2ccc(OCc3cccc(Cl)c3)cc2)C1C(=O)NO (stereo partly drawn)	851	–
CNC(=O)[C@@H](Cc1ccc(OC)cc1)NC(=O)C(CC(C)C)CP(=O)(O)Cc1ccc(CC(C)C)cc1 (stereo partly drawn)	4470	–
O=C(CN(Cc1ccc([N+](=O)[O-])cc1)S(=O)(=O)c1c(F)c(F)c(F)c(F)c1F)NO	3.02	–
CNC(=O)[C@@H](NC(=O)C(CC1CCC1)CP(=O)(O)Cc1ccc(Cc2ccccc2)cc1)C(C)(C)C (stereo partly drawn)	178	–
CC(N)P(=O)(O)CC(COCc1ccccc1)C(=O)NC(Cc1c[nH]c2ccccc12)C(N)=O (stereo not drawn)	251	–
CC(N)P(=O)(O)CC(CCc1ccccc1)C(=O)NC(Cc1c[nH]c2ccccc12)C(N)=O (stereo not drawn)	79.4	–
CNC(=O)[C@@H](NC(=O)C(CC(C)C)CP(=O)(O)Cc1ccc(Cc2ccccc2)cc1)C(C)(C)C (stereo partly drawn)	60.3	–
CNC(=O)[C@@H](NC(=O)C(CCc1ccccc1)CP(=O)(O)Cc1ccc(Cc2ccccc2)cc1)C(C)(C)C (stereo partly drawn)	692	–
C[C@@]1(O)CCCN(S(=O)(=O)c2ccc(OCc3cncc4ccccc34)cc2)C1C(=O)NO (stereo partly drawn)	7760	–
CCOCCC1(Oc2ccc(Oc3ccc(C(=O)N(C)C)cc3)cc2)C(=O)NC(=O)NC1=O	–	IC50 [1]: 9330 nM
CNC(=O)[C@@H](NC(=O)C(CC1CCCCC1)CP(=O)(O)Cc1ccc(Cc2ccccc2)cc1)C(C)(C)C (stereo partly drawn)	1820	–
CCOCCC1(Oc2ccc(Oc3cccc(C)c3)cc2)C(=O)NC(=O)NC1=O	–	IC50 [1]: 50.1 nM

SMILES	IC50 (Interstitial collagenase) [nM]	other results
CCCN1CC(=O)N(C2C[C@H](C(=O)NO)N(S(=O)(=O)c3ccc(OCCOC)cc3)C2)C1=O (stereo partly drawn)	–	IC50 (Matrilysin): 11000 nM
CNC(=O)[C@@H](Cc1ccc(OC)cc1)NC(=O)C(CC(C)C)CP(=O)(O)Cc1ccccc1-c1ccccc1 (stereo partly drawn)	11000	–
CCOCCC1(Oc2ccc(Oc3ccc(-c4ccccc4)cc3)cc2)C(=O)NC(=O)NC1=O	–	IC50 [1]: 36.3 nM
COc1ccc(S(=O)(=O)N2CC(N3C(=O)CN(C)C3=O)C[C@@H]2C(=O)NO)cc1 (stereo partly drawn)	–	IC50 (Matrilysin): 1820 nM
C[C@@]1(O)CCCN(S(=O)(=O)c2ccc(OCc3ccncc3)cc2)C1C(=O)NO (stereo partly drawn)	191	–
C[C@@]1(O)CCCN(S(=O)(=O)c2ccc(OCc3ccc(F)cc3)cc2)C1C(=O)NO (stereo partly drawn)	417	–
CNC(=O)[C@@H](Cc1ccc(OC)cc1)NC(=O)C(CC(C)C)CP(=O)(O)Cc1cccc(CCc2ccccc2)c1 (stereo partly drawn)	7410	–
C=CCN1CC(=O)N(C2C[C@H](C(=O)NO)N(S(=O)(=O)c3ccc(OCCOC)cc3)C2)C1=O (stereo partly drawn)	–	IC50 (Matrilysin): 11000 nM
C=CCN1CC(=O)N(C2C[C@H](C(=O)NO)N(S(=O)(=O)c3ccc(OCCC)cc3)C2)C1=O (stereo partly drawn)	–	IC50 (Matrilysin): 2570 nM
CCOc1ccc(S(=O)(=O)N2CC(N3C(=O)CN(C)C3=O)C[C@@H]2C(=O)NO)cc1 (stereo partly drawn)	–	IC50 (Matrilysin): 7590 nM
CCCCOc1ccc(S(=O)(=O)N2CC(N3C(=O)NC(SC)C3=O)C[C@@H]2C(=O)NO)cc1 (stereo partly drawn)	–	IC50 (Matrilysin): 851 nM
CCOCCC1(Oc2ccc(Oc3ccc(C#N)cc3)cc2)C(=O)NC(=O)NC1=O	–	IC50 [1]: 200 nM
C[C@@]1(O)CCCN(S(=O)(=O)c2ccc(OCc3ccnc4ccccc34)cc2)C1C(=O)NO (stereo partly drawn)	120	–
CC(N)P(=O)(O)CC(CCCc1ccccc1)C(=O)NC(Cc1c[nH]c2ccccc12)C(N)=O (stereo not drawn)	30.9	–
CCOCCC1(Oc2ccc(Oc3ccc(C(F)(F)F)cc3)cc2)C(=O)NC(=O)NC1=O	–	IC50 [1]: 151 nM
CCOCCC1(Oc2ccc(Oc3cccc(F)c3)cc2)C(=O)NC(=O)NC1=O	–	IC50 [1]: 60.3 nM
C[C@@]1(O)CCCN(S(=O)(=O)c2ccc(OCc3cccc(F)c3)cc2)C1C(=O)NO (stereo partly drawn)	339	–
C=CCN1CC(=O)N(C2C[C@H](C(=O)NO)N(S(=O)(=O)c3ccc(OCCCC)cc3)C2)C1=O (stereo partly drawn)	–	IC50 (Matrilysin): 1000 nM
CCOCCC1(Oc2ccc(Oc3ccccc3Cl)cc2)C(=O)NC(=O)NC1=O	–	IC50 [1]: 513 nM
